Experimental data from patent US10562910B2, “Nitrogen-containing tricyclic compounds and uses thereof in medicine” (SUNSHINE LAKE PHARMA CO., LTD., priority 2016, dated 2020).
pEC50: −log10 of the molar value.

Tests used:
[1] = biological target: FXR ligand binding domain (LBD) (Homo sapiens (Human), UniProt Q96RI1); experiment: Mammalian one hybrid (M1H) GAL4 reporter gene assay in HEK293 cells; type: cell-based; conditions: GAL4 reporter gene test
Source text: Mammalian one hybrid technology is also called chimeric receptor gene assay. Based on the GAL4 chimera receptor assay, the activity of compounds which mediated activation of FXR was detected by dual luciferase reporter assay. The methods were as follows: cDNA encoding the FXR ligand binding domain (LBD), the yeast GAL4 DNA binding domain (DBD) and the Renilla luciferase DNA were fused to construct a chimera expression plasmid pBIND-FXR (Promega). […] The plasmid pG5Luc (Promega) was used as the reporter plasmid, containing the GAL4 upstream activation sequence (UAS) and the Firefly luciferase receptor gene. All GAL4 reporter gene assays were done in HEK293 cells. Cells were cultured at 37° C., 5% CO2 under humidified conditions. […] The contents were mixed completely and incubated the mixtures for 15 minutes at room temperature. The volume of the transfection mixture was 2.5 μl/well. Trypsinized and diluted the cell slurry at a density of […] (100 μl/well for 96-well plate). Then added required volume of transfection mixture prepared previously into the cell slurry, and dispensed 100 μl/well of the cell slurry into the 96-well plate and incubated the plate for 24 hours at 37° C., 5% CO2 under humidified conditions. Compounds prediluted in complete medium were added into each well and then incubated at 37° C., 5% CO2 under humidified conditions for 18 hours. The firefly and renilla luciferase signal was assayed by Promega's Dual Luciferase Reporter Assay System.
The % Activation value was calculated by the following equation: Activation %=[(X−Min)/(Max−Min)]×100%. “X” is the “F/R” value from compounds. “F/R” means “Firefly/Renilla”. “Min” is the mean “F/R” value from no compound control. “Max” is the mean “F/R” value from reference compound control. Finally, the EC50 value of each compounds were calculated by GraphPrism 5.0.

[2] = biological target: FXR-LBD (Homo sapiens (Human), UniProt Q96RI1); experiment: TR-FRET Farnesoid X Receptor Coactivator Assay; type: biochemical; conditions: TR-FRET farnesoid X receptor protein coactivator activity
Method: Purchasing invitrogen PV4833 kits. The procedure refers to LanthaScreen™ TR-FRET Farnesoid X Receptor Coactivator Assay
First, the required amount of the compound was weighed and dissolved in 100% DMSO at the maximum concentration of 3000 μM. The solution at the maximum concentration was diluted by 3-fold serial dilution in DMSO to get 10 concentrations;
Second, the above prepared solutions of different concentrations were diluted to 50-fold with a buffer supplied with the kit, to 2× compound solution, followed by mixing and then 10 μL of the diluted solution was added to a 384 well plate;
Third, FXR-LBD was diluted with a buffer to 4× solution, and 5 μL of the diluent was added to the 384 well plate of second step;
Fourth, Fluorescein-SRC2-2 and Tb anti-GST antibody were diluted to 4× Fluorescein-SRC2-2 and Tb anti-GST antibody solution. Then two reagents were mixed together, and 5 μL of the mixture was added to the 384 well plate of third step;
Finally, the solution of the 384 well above was mixed uniformly by centrifuging, and then incubated at room temperature for 1 h. Then the TR-FRET Endpoint method was used for measuring the solution at wavelengths of 520 nm, 495 nm and 337 nm.

Chain of FXR-LBD (Q96RI1 262-486): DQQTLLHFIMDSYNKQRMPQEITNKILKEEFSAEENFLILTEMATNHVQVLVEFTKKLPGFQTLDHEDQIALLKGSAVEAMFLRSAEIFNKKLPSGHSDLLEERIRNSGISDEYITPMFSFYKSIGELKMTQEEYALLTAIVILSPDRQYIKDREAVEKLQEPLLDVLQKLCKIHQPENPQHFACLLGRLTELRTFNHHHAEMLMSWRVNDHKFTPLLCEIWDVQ
Chain of FXR ligand binding domain (LBD) (Q96RI1 261-481): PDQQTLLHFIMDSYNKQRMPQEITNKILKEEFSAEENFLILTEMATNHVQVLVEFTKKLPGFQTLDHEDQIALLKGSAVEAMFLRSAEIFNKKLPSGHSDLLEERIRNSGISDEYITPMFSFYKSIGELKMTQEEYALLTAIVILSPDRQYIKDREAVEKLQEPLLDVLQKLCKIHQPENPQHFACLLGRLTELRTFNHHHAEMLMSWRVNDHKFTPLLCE

O=C(O)c1cc2c(cc1O)CCc1nc(OCc3c(-c4c(Cl)cccc4Cl)noc3C3CC3)ccc1O2 [Example 11, 2-((5-cyclopropyl-3-(2,6-dichlorophenyl)isoxazol-4-yl)methoxy)-8-hydroxy-10,11-dihydrobenzo[6,7]oxepino[3,2-b]pyridine-7-carboxylic acid]
pEC50 [1]: 6.98 | pEC50 [2]: 7.77
